Measured values published in article PMC2248166, “Quantitative peptide binding motifs for 19 human and mouse MHC class I molecules derived using positional scanning combinatorial peptide libraries” (Immunome Research, 2008).
Where a SMILES comes first, the peptide text is derived from it.

Molecular target: HLA B*0801 (Homo sapiens, UniProt P01889, A93T/A95T/D138N/E176V/E187T/K202T/Q94N/R180D/S35A/V36M/Y33D/Y91F)
Assay: biochemical
Assay type: binding

Row | Structure (SMILES) | IC50 [nM]
1 | CC(C)C[C@H](NC(=O)CNC(=O)[C@@H](N)CC(N)=O)C(=O)N[C@H](C(=O)N[C@@H](CCCNC(=N)N)C(=O)N[C@@H](CC(C)C)C(=O)N[C@@H](CC(N)=O)C(=O)N[C@@H](C)C(=O)N[C@@H](Cc1ccccc1)C(=O)O)C(C)C [3102.0603] (H-NGLVRLNAF-OH) | 57
2 | CSCC[C@H](N)C(=O)N[C@@H](Cc1ccc(O)cc1)C(=O)N[C@@H](CCCCN)C(=O)N[C@@H](CO)C(=O)N[C@@H](CCCNC(=N)N)C(=O)N[C@H](C(=O)N[C@@H](CCC(=O)O)C(=O)N[C@@H](CCCNC(=N)N)C(=O)N[C@H](C(=O)O)C(C)C)C(C)C [3102.0607] (H-MYKSRVERV-OH) | 47
3 | CC(C)C[C@H](NC(=O)[C@@H]1CCCN1C(=O)[C@H](CCCNC(=N)N)NC(=O)[C@H](Cc1ccccc1)NC(=O)[C@H](CCCCN)NC(=O)[C@H](CCCCN)NC(=O)[C@H](CCCNC(=N)N)NC(=O)[C@H](Cc1ccc(O)cc1)NC(=O)[C@@H](N)Cc1ccccc1)C(=O)O [3102.0608] (H-FYRKKFRPL-OH) | 0.088
4 | CC[C@H](C)[C@H](NC(=O)[C@H](CCSC)NC(=O)[C@H](CC(C)C)NC(=O)[C@@H]1CCCN1C(=O)[C@@H](N)CCCNC(=N)N)C(=O)N[C@@H](Cc1ccccc1)C(=O)N[C@@H](CCSC)C(=O)N[C@@H](CO)C(=O)NCC(=O)O [3102.0609] (H-RPLMIFMSG-OH) | 12
5 | CC(C)C[C@H](NC(=O)[C@H](CCCNC(=N)N)NC(=O)[C@@H](NC(=O)[C@H](Cc1ccccc1)NC(=O)[C@H](Cc1c[nH]cn1)NC(=O)CNC(=O)[C@H](CCCCN)NC(=O)[C@H](CC(N)=O)NC(=O)[C@@H](N)Cc1ccccc1)[C@@H](C)O)C(=O)O [3102.0610] (H-FNKGHFTRL-OH) | 16
6 | CSCC[C@H](NC(=O)[C@@H](NC(=O)[C@H](CS)NC(=O)[C@H](CCCCN)NC(=O)[C@H](CCC(N)=O)NC(=O)[C@H](CC(C)C)NC(=O)[C@H](CCCCN)NC(=O)[C@H](CC(C)C)NC(=O)[C@@H](N)CCSC)C(C)C)C(=O)O [3102.0611] (H-MLKLQKCVM-OH) | 9.3
7 | CC[C@H](C)[C@H](NC(=O)[C@H](CO)NC(=O)[C@H](Cc1ccccc1)NC(=O)[C@H](CC(C)C)NC(=O)[C@@H](NC(=O)[C@H](CCCNC(=N)N)NC(=O)[C@H](CC(C)C)NC(=O)[C@@H](N)Cc1c[nH]cn1)C(C)C)C(=O)N[C@@H](Cc1ccccc1)C(=O)O [3102.0612] (H-HLRVLFSIF-OH) | 4.7
8 | CC(C)C[C@H](NC(=O)[C@@H]1CCCN1C(=O)[C@@H](N)CO)C(=O)N[C@@H](CO)C(=O)N[C@@H](CCCCN)C(=O)N[C@@H](CS)C(=O)N[C@H](C(=O)N[C@H](C(=O)N[C@H](C(=O)O)C(C)C)C(C)C)C(C)C [3102.0613] (H-SPLSKCVVV-OH) | 31
9 | CC[C@H](C)[C@H](NC(=O)[C@H](CO)NC(=O)[C@@H](NC(=O)[C@@H](NC(=O)[C@H](Cc1c[nH]c2ccccc12)NC(=O)[C@H](CCCCN)NC(=O)[C@H](CCSC)NC(=O)[C@@H](N)CCSC)[C@@H](C)CC)[C@@H](C)CC)C(=O)N[C@@H](CC(C)C)C(=O)O [3102.0616] (H-MMKWIISIL-OH) | 1.3
10 | CC(C)C[C@H](NC(=O)[C@H](CO)NC(=O)CNC(=O)[C@H](Cc1ccc(O)cc1)NC(=O)[C@H](CCCCN)NC(=O)[C@H](Cc1c[nH]cn1)NC(=O)[C@H](CCCCN)NC(=O)[C@H](CC(C)C)NC(=O)[C@@H](N)Cc1ccccc1)C(=O)O [3102.0617] (H-FLKHKYGSL-OH) | 0.14
11 | CC[C@H](C)[C@H](NC(=O)[C@@H](NC(=O)[C@H](CC(C)C)NC(=O)[C@H](Cc1ccccc1)NC(=O)[C@H](Cc1c[nH]cn1)NC(=O)[C@@H](NC(=O)[C@@H](NC(=O)[C@H](CCCCN)NC(=O)[C@@H](N)CCC(=O)O)[C@@H](C)CC)[C@@H](C)CC)[C@@H](C)O)C(=O)O [3102.0618] (H-EKIIHFLTI-OH) | 5
12 | CSCC[C@H](NC(=O)[C@H](CS)NC(=O)[C@H](CCCNC(=N)N)NC(=O)[C@H](Cc1ccc(O)cc1)NC(=O)[C@H](CCCCN)NC(=O)[C@H](CCCCN)NC(=O)[C@@H](N)CC(N)=O)C(=O)N[C@@H](C)C(=O)N[C@@H](CC(C)C)C(=O)O [3102.0619] (H-NKKYRCMAL-OH) | 1.9
13 | CC[C@H](C)[C@H](NC(=O)[C@@H](N)CS)C(=O)N[C@H](C(=O)N[C@@H](CC(N)=O)C(=O)N[C@@H](CCCCN)C(=O)N[C@@H](Cc1ccccc1)C(=O)N[C@@H](CCSC)C(=O)N[C@@H](CO)C(=O)N[C@@H](Cc1ccccc1)C(=O)O)C(C)C [3102.0620] (H-CIVNKFMSF-OH) | 60
14 | CC[C@H](C)[C@H](NC(=O)[C@H](CCCNC(=N)N)NC(=O)[C@@H](N)CO)C(=O)N[C@@H](CO)C(=O)N[C@@H](CCCNC(=N)N)C(=O)N[C@@H](Cc1ccccc1)C(=O)N[C@@H](C)C(=O)N[C@@H](CC(N)=O)C(=O)N[C@@H](CC(C)C)C(=O)O [3102.0622] (H-SRISRFANL-OH) | 20
15 | CC[C@H](C)[C@H](NC(=O)[C@@H]1CCCN1C(=O)[C@@H](N)CCC(=O)O)C(=O)N[C@@H](CCCCN)C(=O)N[C@@H](Cc1c[nH]cn1)C(=O)N[C@@H](CCCCN)C(=O)N[C@@H](Cc1ccc(O)cc1)C(=O)N1CCC[C@H]1C(=O)N[C@@H](CC(C)C)C(=O)O [3102.0624] (H-EPIKHKYPL-OH) | 1.3
16 | C[C@H](NC(=O)[C@H](Cc1ccccc1)NC(=O)[C@H](CO)NC(=O)[C@H](CS)NC(=O)[C@H](CCCNC(=N)N)NC(=O)[C@H](Cc1ccc(O)cc1)NC(=O)[C@H](CCCNC(=N)N)NC(=O)[C@H](CCCNC(=N)N)NC(=O)[C@@H](N)CO)C(=O)O [3102.0625] (H-SRRYRCSFA-OH) | 52
17 | CC[C@H](C)[C@H](NC(=O)[C@H](CO)NC(=O)[C@H](Cc1c[nH]cn1)NC(=O)[C@H](Cc1ccc(O)cc1)NC(=O)[C@H](CCCNC(=N)N)NC(=O)[C@@H]1CCCN1C(=O)[C@@H](N)Cc1ccccc1)C(=O)N[C@@H](CCC(=O)O)C(=O)N[C@@H](CC(C)C)C(=O)O [3102.0626] (H-FPRYHSIEL-OH) | 0.49
18 | CC[C@H](C)[C@H](NC(=O)[C@H](Cc1ccc(O)cc1)NC(=O)[C@@H](NC(=O)[C@@H](N)CO)C(C)C)C(=O)N[C@@H](CCCNC(=N)N)C(=O)N1CCC[C@H]1C(=O)N[C@H](C(=O)N[C@@H](CO)C(=O)N[C@@H](CC(C)C)C(=O)O)[C@@H](C)O [3102.0627] (H-SVYIRPTSL-OH) | 11
19 | CC[C@H](C)[C@H](NC(=O)[C@@H](N)CO)C(=O)N[C@@H](CC(N)=O)C(=O)N[C@H](C(=O)N[C@@H](CCCCN)C(=O)N[C@@H](Cc1c[nH]cn1)C(=O)N[C@H](C(=O)N[C@@H](CO)C(=O)N[C@H](C(=O)O)C(C)C)[C@@H](C)O)C(C)C [3102.0630] (H-SINVKHTSV-OH) | 13
20 | CC[C@H](C)[C@H](NC(=O)[C@H](CCSC)NC(=O)[C@@H](NC(=O)[C@H](CCCCN)NC(=O)[C@H](CC(C)C)NC(=O)[C@@H](N)CO)[C@@H](C)CC)C(=O)N[C@@H](CCC(N)=O)C(=O)N[C@@H](CO)C(=O)N[C@@H](CCSC)C(=O)O [3102.0631] (H-SLKIMIQSM-OH) | 2.5
21 | CC[C@H](C)[C@H](NC(=O)[C@H](Cc1c[nH]cn1)NC(=O)[C@H](Cc1ccccc1)NC(=O)[C@H](CC(C)C)NC(=O)[C@H](CC(N)=O)NC(=O)[C@@H]1CCCN1C(=O)[C@H](CC(C)C)NC(=O)[C@@H](N)CCCNC(=N)N)C(=O)N[C@@H](CC(C)C)C(=O)O [3102.0632] (H-RLPNLFHIL-OH) | 69
22 | CC(C)C[C@H](NC(=O)[C@H](CO)NC(=O)[C@@H]1CCCN1C(=O)[C@H](CCCNC(=N)N)NC(=O)[C@H](CCCCN)NC(=O)[C@H](CO)NC(=O)[C@H](CC(C)C)NC(=O)[C@H](CC(C)C)NC(=O)[C@@H](N)C(C)C)C(=O)O [3102.0634] (H-VLLSKRPSL-OH) | 78
23 | CC[C@H](C)[C@H](NC(=O)[C@H](CCCCN)NC(=O)[C@H](CC(C)C)NC(=O)[C@@H](NC(=O)[C@H](Cc1c[nH]cn1)NC(=O)[C@H](CCCCN)NC(=O)[C@H](CCCNC(=N)N)NC(=O)[C@H](CC(C)C)NC(=O)[C@@H](N)CC(C)C)[C@@H](C)O)C(=O)O [3102.0636] (H-LLRKHTLKI-OH) | 21
24 | CC(C)C[C@H](NC(=O)[C@H](CCCNC(=N)N)NC(=O)[C@H](CCCCN)NC(=O)[C@H](CC(N)=O)NC(=O)[C@H](CCCNC(=N)N)NC(=O)[C@H](CC(C)C)NC(=O)[C@H](CCCNC(=N)N)NC(=O)[C@H](CCCNC(=N)N)NC(=O)[C@@H](N)Cc1c[nH]cn1)C(=O)O [3102.0641] (H-HRRLRNKRL-OH) | 28
25 | CC[C@H](C)[C@H](NC(=O)[C@H](CC(N)=O)NC(=O)[C@H](CCCCN)NC(=O)[C@H](Cc1ccccc1)NC(=O)[C@H](CCCNC(=N)N)NC(=O)[C@H](CC(N)=O)NC(=O)[C@H](CCSC)NC(=O)[C@H](CC(C)C)NC(=O)[C@@H](N)Cc1ccc(O)cc1)C(=O)O [3102.0642] (H-YLMNRFKNI-OH) | 1.3
26 | CC(C)C[C@H](NC(=O)[C@@H](NC(=O)[C@H](CC(C)C)NC(=O)[C@H](CCCCN)NC(=O)[C@H](CCCNC(=N)N)NC(=O)[C@H](Cc1ccccc1)NC(=O)[C@H](Cc1ccccc1)NC(=O)[C@@H]1CCCN1C(=O)[C@@H](N)Cc1ccc(O)cc1)C(C)C)C(=O)O [3102.0643] (H-YPFFRKLVL-OH) | 5.9
27 | CSCC[C@H](N)C(=O)N[C@@H](CC(C)C)C(=O)N[C@@H](CC(C)C)C(=O)N[C@@H](CS)C(=O)N[C@@H](Cc1c[nH]cn1)C(=O)N[C@@H](CCCCN)C(=O)N1CCC[C@H]1C(=O)N[C@H](C(=O)N[C@@H](CC(C)C)C(=O)O)[C@@H](C)O [3102.0644] (H-MLLCHKPTL-OH) | 19
28 | CC[C@H](C)[C@H](NC(=O)[C@H](CCC(=O)O)NC(=O)[C@H](CCCNC(=N)N)NC(=O)[C@H](CC(C)C)NC(=O)[C@@H](N)CO)C(=O)N[C@@H](CO)C(=O)N[C@@H](CC(N)=O)C(=O)N[C@H](C(=O)N[C@H](C(=O)O)C(C)C)[C@@H](C)CC [3102.0645] (H-SLREISNIV-OH) | 10
29 | CC(C)C[C@H](NC(=O)[C@H](CO)NC(=O)[C@@H](NC(=O)[C@H](CC(C)C)NC(=O)[C@H](CO)NC(=O)[C@H](CCC(N)=O)NC(=O)[C@H](CCCCN)NC(=O)[C@H](CC(N)=O)NC(=O)[C@@H](N)Cc1ccc(O)cc1)C(C)C)C(=O)O [3102.0646] (H-YNKQSLVSL-OH) | 30
30 | CC[C@H](C)[C@H](NC(=O)[C@@H](N)CS)C(=O)N[C@@H](CCCCN)C(=O)N[C@@H](CO)C(=O)N[C@@H](Cc1c[nH]cn1)C(=O)N[C@@H](CO)C(=O)N[C@H](C(=O)N[C@@H](CO)C(=O)N[C@@H](CC(C)C)C(=O)O)C(C)C [3102.0647] (H-CIKSHSVSL-OH) | 2.3
